From ChEMBL document CHEMBL1146129, “First dual M3 antagonists-PDE4 inhibitors: synthesis and SAR of 4,6-diaminopyrimidine derivatives” (Bioorg Med Chem Lett, 2006)

How the values were obtained:
Phosphodiesterase 4 = Phosphodiesterase 4 (Homo sapiens, UniProt P27815+Q08499+Q07343+Q08493); type: functional, cell-based; conditions: u-937
Description: Inhibition of PDE4 activity in U937 cells

[1] = target: T1, Muscarinic acetylcholine receptor M3 (Homo sapiens, UniProt P20309); assay: biochemical; type: cell-based, CHO
Target sequence in this assay (P20309 whole entry): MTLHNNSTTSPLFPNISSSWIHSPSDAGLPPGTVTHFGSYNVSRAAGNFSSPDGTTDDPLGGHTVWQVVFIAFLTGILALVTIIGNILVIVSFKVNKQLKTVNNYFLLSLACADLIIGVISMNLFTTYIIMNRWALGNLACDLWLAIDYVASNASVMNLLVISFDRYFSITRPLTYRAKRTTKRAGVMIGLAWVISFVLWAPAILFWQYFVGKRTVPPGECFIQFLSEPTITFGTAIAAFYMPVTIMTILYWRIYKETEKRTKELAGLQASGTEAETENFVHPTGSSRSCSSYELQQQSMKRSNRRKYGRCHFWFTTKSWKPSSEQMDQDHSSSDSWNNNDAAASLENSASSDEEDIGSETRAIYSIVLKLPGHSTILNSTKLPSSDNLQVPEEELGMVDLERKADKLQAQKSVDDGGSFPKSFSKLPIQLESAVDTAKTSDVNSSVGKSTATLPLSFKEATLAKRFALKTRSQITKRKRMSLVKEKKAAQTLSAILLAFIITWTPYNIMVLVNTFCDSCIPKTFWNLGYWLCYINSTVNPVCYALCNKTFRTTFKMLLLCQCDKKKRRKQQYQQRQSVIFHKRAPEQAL

[2] = buffer, pH 7.4
[3] = target: T1, Muscarinic acetylcholine receptor M3; assay: Displacement of [3H]methylscopolamine from recombinant human muscarinic M3 receptors expressed in CHO cells at 10 um; type: cell-based
Target sequence in this assay (P20309 whole entry, looked up): as the sequence (P20309 whole entry) above

Description for physchem: Dissociation constant, pKa of the compound

Compound | IC50 (Phosphodiesterase 4) | Ki [1] | pKa (physchem) | LogK-IAMex [2] | inhibition [3]
CCc1c(NC2CC2)nc(C2CC2)nc1N1CCSCC1 | 1600 nM | 100 nM | 6.78 | – | –
O=[N+]([O-])c1c(NC2CC2)nc(C2CC2)nc1N1CCCCCC1 | 1260 nM | 2510 nM | 4.64 | – | –
Cc1c(NCc2ccccc2)nc(C2CC2)nc1NC1CC1 | 4000 nM | 200 nM | – | 2.36 | –
Cc1c(NCCc2cccs2)nc(C2CC2)nc1NC1CC1 | 2500 nM | 79 nM | – | 2.57 | –
C=C1CCN(c2nc(C3CC3)nc(NC3CC3)c2C)CC1 | 400 nM | 79 nM | – | 2.7 | –
C[C@@H]1C[C@H]1c1nc(NC2CC2)cc(N2CCCCCC2)n1 | 2500 nM | 398 nM | – | – | –
Cc1c(NCc2cccs2)nc(C2CC2)nc1NC1CC1 | 6300 nM | 126 nM | – | 2.21 | –
Cc1c(NC2CC2)nc(C2CC2)nc1N1CCC(C(F)(F)F)CC1 | 2000 nM | 100 nM | – | 2.94 | –
Cc1c(NC2CCCCCC2)nc(C2CC2)nc1NC1CC1 | 2000 nM | 398 nM | – | 2.98 | –
Cc1c(NC2CC2)nc(C2CC2)nc1N(C)Cc1ccccc1 | 400 nM | 251 nM | – | 2.7 | –
Cc1c(NC2CC2)nc(C2CCCC2)nc1N1CCCCCC1 | 1260 nM | 79 nM | – | – | –
Cc1c(NC2CC2)nc(C2CC2)nc1N1CCC2(CCCC2)CC1 | 790 nM | 158 nM | – | 3.66 | –
Cc1c(NC2CC2)nc(C2CC2)nc1N1CCC(O)CC1 | 4000 nM | 501 nM | – | 1.2 | –
Cc1c(NC2CC2)nc(C2CC2)nc1N1CCOCC1 | 790 nM | – | – | 1.45 | < 50%
Cc1c(NC2CC2)nc(CC2CC2)nc1N1CCCCCC1 | 2000 nM | 126 nM | – | – | –
Cc1c(NC2CC2)nc(C2CC2)nc1N1CCC(=O)CC1 | 3200 nM | 3200 nM | – | 1.35 | –

Compound | IC50 (Phosphodiesterase 4) | Ki [1] | pKa (physchem) | LogK-IAMex [2] | inhibition [3]
Cc1c(NC2CCCCC2)nc(C2CC2)nc1NC1CC1 | 2500 nM | 316 nM | – | 2.71 | –
c1c(NC2CC2)nc(C2CC2)nc1N1CCCCCC1 | 400 nM | 63 nM | 8.03 | – | –
Cc1c(NCc2c(F)cccc2F)nc(C2CC2)nc1NC1CC1 | 2000 nM | 63 nM | – | 2.38 | –
Cc1c(NC2CC2)nc(C2CC2)nc1N1CCC(CO)CC1 | 630 nM | 501 nM | – | 1.57 | –
Cc1c(NC2CC2)nc(C2CC2)nc1N1CCCC1 | 1600 nM | 100 nM | – | 2.36 | –
Fc1c(NC2CC2)nc(C2CC2)nc1N1CCCCCC1 | 630 nM | 251 nM | 6.44 | – | –
Fc1c(NC2CC2)nc(C2CC2)nc1N1CCSCC1 | 250 nM | – | 5.27 | – | < 50%
COc1c(NC2CC2)nc(C2CC2)nc1N1CCSCC1 | 2500 nM | 398 nM | 6.47 | – | –
Brc1c(NC2CC2)nc(C2CC2)nc1N1CCCCCC1 | 630 nM | 316 nM | 6.21 | – | –
Cc1c(NC2CC2)nc(C2CC2)nc1N1CCC(Cc2ccccc2)CC1 | 2000 nM | 790 nM | – | 3.89 | –
Nc1c(NC2CC2)nc(C2CC2)nc1N1CCCCCC1 | 790 nM | 79 nM | 7.15 | – | –
Cc1c(NC2CC2)nc(C2CC2)nc1N1CCc2ccccc2C1 | 500 nM | 316 nM | – | 2.97 | –
Cc1c(NC2CC2)nc(Cc2ccccc2)nc1N1CCCCCC1 | 1000 nM | 501 nM | – | – | –
Cc1c(NC2CC2)nc(C2CC2)nc1N1CCSCC1 | 320 nM | 79 nM | 6.99 | 2.14 | –
Cc1c(NC2CC2)nc(C2CC2)nc1N1CCC(F)(F)CC1 | 400 nM | 50 nM | – | 2.5 | –

The remaining lines, values ahead:

IC50 (Phosphodiesterase 4) | Ki [1] | pKa (physchem) | LogK-IAMex [2] | inhibition [3] | Compound
3200 nM | 32 nM | – | – | – | Cc1c(NC2CC2)nc([C@@H]2C[C@H]2C)nc1N1CCCCCC1
500 nM | 50 nM | – | – | – | C1CCCN(c2nc(C3CC3)nc3c2CCCN3)CC1
6300 nM | 10 nM | – | – | – | Cc1c(NC2(C)CC2)nc(C2CC2)nc1N1CCCCCC1
320 nM | 25 nM | – | 3.02 | – | Cc1c(NC2CC2)nc(C2CC2)nc1N1CCC(C)(C)CC1
2000 nM | 40 nM | – | – | – | Cc1c(NC2CC2)nc(C2CCC2)nc1N1CCCCCC1
500 nM | 6.3 nM | – | 3.11 | – | Cc1c(NC2CC2)nc(C2CC2)nc1N1CC2CCC(C2)C1
2500 nM | 25 nM | – | – | – | Cc1c(NC2CC2)nc(C(C)C)nc1N1CCCCCC1
1600 nM | 16 nM | – | 3.05 | – | Cc1c(NC2CC2)nc(C2CC2)nc1N1CCCCCCC1
790 nM | 32 nM | – | 2.37 | – | Cc1c(NC2CC2)nc(C2CC2)nc1N1CC=CCC1
500 nM | 13 nM | – | 2.5 | – | Cc1c(NC2CC2)nc(C2CC2)nc1N1CCCCC1
2000 nM | 7.9 nM | – | – | – | Cc1c(NC2CCC2)nc(C2CC2)nc1N1CCCCCC1
7900 nM | 7.9 nM | – | – | – | Cc1c(N[C@H]2C[C@@H]2C)nc(C2CC2)nc1N1CCCCCC1
630 nM | 50 nM | – | 3.21 | – | CCC1CCN(c2nc(C3CC3)nc(NC3CC3)c2C)CC1
1300 nM | 10 nM | – | – | – | C1CCCN(c2nc(C3CC3)nc3c2CCCCN3)CC1
630 nM | 16 nM | – | 2.8 | – | Cc1c(NC2CC2)nc(C2CC2)nc1N1CCC(C)CC1
